In ChEMBL document CHEMBL5523725, “Fragment-Based Anti-inflammatory Agent Design and Target Identification: Discovery of AF-45 as an IRAK4 Inhibitor to Treat Ulcerative Colitis and Acute Lung Injury” (J Med Chem, 2024):
Active and inactive are the calls of the source. No cut-off for these calls is given here.

Assays:
RAW264.7 [1] = test: Antiinflammatory activity in LPS-induced mouse RAW264.7 cells assessed as inhibition of IL-6 mRNA transcription pretreated for 2 hrs followed by LPS stimulation and measured after 6 hrs by RT-qPCR analysis; assay type: functional, cell-based; details: dose 5-10 µM, time 8.0 hrs
Mus musculus [2] = test: Antiinflammatory activity in LPS induced C57BL/6 mouse model of acute lung injury assessed as inhibition of IL-6 release in BALF at 20 to 40 mg/kg, ip preadministered for 30 mins followed by LPS administration and measured after 6 hrs by ELISA; assay type: functional, organism-based; details: dose 20-40 mg/kg, time 6.5 hrs
[3] = Half life in male Sprague-Dawley rat at 10 mg/kg, po measured upto 24 hrs; assay type: ADME, organism-based; details: in vivo
Mus musculus [4] = test: Antiinflammatory activity in male C57BL/6 mouse model of DSS-induced ulcerative colitis assessed as reduction in DAI score at 20 mg/kg, po administered for 11 days with subsequent administration of DSS for 8 days; assay type: functional, organism-based; details: time 11.0 day
[5] = target: Interleukin-1 receptor-associated kinase 1 (Homo sapiens, UniProt P51617); test: Inhibition of IRAK1 (unknown origin)
Chain of Interleukin-1 receptor-associated kinase 1 (P51617 whole entry): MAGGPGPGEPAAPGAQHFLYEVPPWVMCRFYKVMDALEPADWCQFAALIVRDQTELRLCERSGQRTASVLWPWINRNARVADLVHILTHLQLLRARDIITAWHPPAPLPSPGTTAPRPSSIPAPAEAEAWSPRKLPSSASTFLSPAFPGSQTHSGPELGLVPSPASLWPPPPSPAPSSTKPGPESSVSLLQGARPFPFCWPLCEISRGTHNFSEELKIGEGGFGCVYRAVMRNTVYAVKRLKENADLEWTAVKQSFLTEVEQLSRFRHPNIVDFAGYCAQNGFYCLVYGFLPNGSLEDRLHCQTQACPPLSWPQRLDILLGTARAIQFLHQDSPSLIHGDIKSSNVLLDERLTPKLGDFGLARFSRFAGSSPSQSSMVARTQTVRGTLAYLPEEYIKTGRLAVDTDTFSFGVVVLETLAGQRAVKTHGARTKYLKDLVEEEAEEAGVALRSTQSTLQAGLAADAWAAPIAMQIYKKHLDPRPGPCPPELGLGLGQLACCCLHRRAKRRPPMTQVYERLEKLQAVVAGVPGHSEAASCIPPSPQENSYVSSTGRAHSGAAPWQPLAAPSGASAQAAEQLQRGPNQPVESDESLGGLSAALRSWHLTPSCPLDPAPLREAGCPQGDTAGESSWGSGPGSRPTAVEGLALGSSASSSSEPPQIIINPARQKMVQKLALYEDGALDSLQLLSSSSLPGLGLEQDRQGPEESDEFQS

[6] = Cmax in male Sprague-Dawley rat at 10 mg/kg, po measured upto 24 hrs; assay type: ADME, organism-based; details: in vivo
RAW264.7 [7] = test: cells; details: Mus musculus
Description: Antiinflammatory activity in LPS-induced mouse RAW264.7 cells assessed as inhibition of TNF-alpha release pretreated for 30 mins followed by LPS stimulation and measured after 24 hrs by ELISA

Mus musculus [8] = test: Anti-colitis activity in male C57BL/6 mouse model of DSS-induced ulcerative colitis assessed as colon length at 20 mg/kg, po administered for 11 days with subsequent administration of DSS for 8 days (reference value: 5.2 cm); assay type: functional; details: time 11 day
Mus musculus [9] = test: Antiinflammatory activity in LPS induced C57BL/6 mouse model of acute lung injury assessed as reduction in white pulp fusion at 20 to 40 mg/kg, ip preadministered for 30 mins followed by LPS administration and measured after 6 hrs by H and E staining based analysis; assay type: functional, organism-based; details: dose 20-40 mg/kg, time 6.5 hrs
Mus musculus [10] = test: Antiinflammatory activity in male C57BL/6 mouse model of DSS-induced ulcerative colitis assessed as reversal of invisible pulp structure at 10 to 20 mg/kg, po administered for 11 days with subsequent administration of DSS for 8 days by H and E staining based analysis; assay type: functional, organism-based; details: dose 10-20 mg/kg, time 11.0 day
Mus musculus [11] = test: Antiinflammatory activity in LPS induced C57BL/6 mouse model of acute lung injury assessed as reduction in macrophage infiltration in lung at 20 to 40 mg/kg, ip preadministered for 30 mins followed by LPS administration and measured after 6 hrs by F4/80 labeling based immunohistochemical analysis; assay type: functional, organism-based; details: dose 20-40 mg/kg, time 6.5 hrs
[12] = target: Cyclin-dependent kinase 16 (Homo sapiens) (UniProt Q00536); test: Inhibition of human PCTAIREI assessed as residual activity at 10 uM by Eurofins kinase profiler method relative to control
Chain of Cyclin-dependent kinase 16 (Homo sapiens) (Q00536 whole entry): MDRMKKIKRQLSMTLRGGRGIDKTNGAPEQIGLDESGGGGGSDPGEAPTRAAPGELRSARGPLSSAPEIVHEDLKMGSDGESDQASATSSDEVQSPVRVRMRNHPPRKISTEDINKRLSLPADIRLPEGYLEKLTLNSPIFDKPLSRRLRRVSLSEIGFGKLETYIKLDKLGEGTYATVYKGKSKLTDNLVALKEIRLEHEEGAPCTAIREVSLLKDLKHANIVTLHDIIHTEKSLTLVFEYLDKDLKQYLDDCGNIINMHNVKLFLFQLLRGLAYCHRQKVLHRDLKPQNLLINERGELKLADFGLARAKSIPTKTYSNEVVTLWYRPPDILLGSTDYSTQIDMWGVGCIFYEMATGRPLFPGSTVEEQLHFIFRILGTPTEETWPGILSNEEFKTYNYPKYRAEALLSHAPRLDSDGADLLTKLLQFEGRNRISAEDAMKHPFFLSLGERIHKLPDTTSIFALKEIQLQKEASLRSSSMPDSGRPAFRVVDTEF

THP-1 = test: cells; details: Homo sapiens
Description: Antiinflammatory activity in LPS-induced human THP-1 cells assessed as inhibition of IL-6 release pretreated for 30 mins followed by LPS stimulation and measured after 24 hrs by ELISA

[13] = Drug uptake in male Sprague-Dawley rat blood at 1 mg/kg, iv administered via tail vein and measured after 24 hrs; assay type: ADME, organism-based; details: in vivo
Mus musculus [14] = test: Antiinflammatory activity in male C57BL/6 mouse model of DSS-induced ulcerative colitis assessed as reduction in colonic structure destruction at 10 to 20 mg/kg, po administered for 11 days with subsequent administration of DSS for 8 days by H and E staining based analysis; assay type: functional, organism-based; details: dose 10-20 mg/kg, time 11.0 day
[15] = Stability of compound in enzyme-free simulated gastric fluid at 10 mg/ml incubated for 8 hrs and measured every 2 hrs hy HPLC analysis; assay type: ADME; details: simulated gi fluid
Mus musculus [16] = test: Antiinflammatory activity in male C57BL/6 mouse model of DSS-induced ulcerative colitis assessed as reduction in macrophage infiltration in colon at 10 to 20 mg/kg, po administered for 11 days with subsequent administration of DSS for 8 days by F4/80 labeling based immunohistochemistry analysis; assay type: functional, organism-based; details: dose 10-20 mg/kg, time 11.0 day
[17] = AUC (0 to t) in male Sprague-Dawley rat at 10 mg/kg, po measured upto 24 hrs; assay type: ADME, organism-based; details: in vivo
[18] = Stability of compound in simulated gastric fluid at 10 mg/ml incubated for 8 hrs and measured every 2 hrs hy HPLC analysis; assay type: ADME; details: simulated gi fluid

With `COc1cc2c(O[C@H]3CC[C@@H](N)CC3)ncnc2cc1OCc1ccccc1` as the compound, how does the Activity (RAW264.7 [1]) read?
The Activity was “Dose-Dependent Effect”.

And the Activity (Mus musculus [2])?
The Activity was “Active”.

What about the half-life [3] of the same compound?
Its half-life is 5.6 h.

And the Activity (Mus musculus [4])?
The Activity was “Active”.

And the IC50 [5]?
Its IC50 is 1.77 µM.

What about the Cmax [6] of the same compound?
The Cmax was 1250 ng/mL.

What about the IC50 (RAW264.7 [7]) of the same compound?
Its IC50 is 2.6 µM.

What about the Activity (Mus musculus [8]) of the same compound?
The Activity was 6.2 cm.

And the Activity (Mus musculus [9])?
Its Activity is “Active”.

What about the Activity (Mus musculus [10]) of the same compound?
The Activity was “Active”.

And the Activity (Mus musculus [11])?
The Activity was “Active”.

What about the Activity [12] of the same compound?
The Activity was 70%.

And the IC50 (THP-1)?
Its IC50 is 0.53 µM.

And the Drug uptake [13]?
Its Drug uptake is “Active”.

And the Activity (Mus musculus [14])?
Its Activity is “Active”.

What about the Stability [15] of the same compound?
Its Stability is “Stable”.

What about the Activity (Mus musculus [16]) of the same compound?
The Activity was “Active”.

What about the AUCt [17] of the same compound?
Its AUCt is 10653.6 ng·h/mL.

What about the Stability [18] of the same compound?
The Stability was “Stable”.
